Experimental data taken from a compilation of properties of binary mixtures (doi:10.1016/j.jct.2019.106017).

Assay: xn = mol fraction of the nth substance listed
Conditions: 99.7 kPa

**Q.** What does the source list for `CCCCCCCCn1cc[n+](C)c1.F[B-](F)(F)F` + CC1COC(=O)O1?
**A.** viscosity (303.15 K, x2 = 0.7343): 5.22 mPa·s; viscosity (303.15 K, x2 = 0.917): 2.84 mPa·s; viscosity (313.15 K, x2 = 0.4086): 26.1 mPa·s; viscosity (313.15 K, x2 = 0.7343): 5.01 mPa·s; viscosity (313.15 K, x2 = 0.917): 2.61 mPa·s; viscosity (323.15 K, x2 = 0.4086): 18.1 mPa·s; viscosity (323.15 K, x2 = 0.7343): 4.81 mPa·s; viscosity (323.15 K, x2 = 0.917): 2.36 mPa·s; viscosity (333.15 K, x2 = 0.4086): 12.9 mPa·s; viscosity (333.15 K, x2 = 0.7343): 4.62 mPa·s; viscosity (333.15 K, x2 = 0.917): 2.16 mPa·s

**Q.** For `CC1COC(=O)O1` (centres undefined) + CCCCCCCCn1cc[n+](C)c1.F[B-](F)(F)F, which viscosity (303.15 K, x1 = 1) is on record?
**A.** The viscosity was 2.21 mPa·s.

**Q.** What about the viscosity (313.15 K, x1 = 1) of the same compound?
**A.** The viscosity was 2 mPa·s.

**Q.** What about the viscosity (333.15 K, x1 = 1) of the same compound?
**A.** The viscosity was 1.6 mPa·s.
